Drawing on ChEMBL document CHEMBL1135834, “First non-ATP competitive glycogen synthase kinase 3 beta (GSK-3beta) inhibitors: thiadiazolidinones (TDZD) as potential drugs for the treatment of Alzheimer's disease” (J Med Chem, 2002), this text covers IC50, Specific activity (nM Pi min-1 (mg of protein)-1) and Specific activity (uM Pi/min/mg protein) for 1 molecule.

pIC50: −log10 of the molar value.

Experiment [1] is described as follows: Inhibition of catalytic subunit of protein kinase A (PKA) from bovine heart. Set-up: species or system Bos taurus.
The species entered for a further experiment is Bos taurus. The experiment is described as follows: Specific activity against Protein kinase A (PKA) from bovine heart.
Experiment [2] deals with Cyclin-dependent kinase 1/cyclin B (Homo sapiens, UniProt P06493). Briefly: Inhibition of Cyclin dependent kinase 1-cyclinB. Format: protein-complex assay.
The target of experiment [3] is Cyclin-dependent kinase 1/cyclin B (Homo sapiens) (UniProt P06493+P14635+Q8WWL7+O95067). Briefly: Specific activity against Cyclin dependent kinase 1-cyclin B. Format: protein-complex assay.
For experiment [4], the target named is Casein kinase II (Homo sapiens) (UniProt P67870+P68400+P19784). Briefly: Specific activity against Casein kinase II (CK II). The note with it: Bos taurus. Format: protein-complex assay.

Take `Cn1sc(=O)n(Cc2ccccc2)c1=O`: the pIC50 in experiment [1] and in experiment [2] was less than 4.00 throughout. The Specific activity (nM Pi min-1 (mg of protein)-1) came to 4 in the experiment listed under Bos taurus and 0.4 in experiment [3]. In experiment [4], this molecule registered a Specific activity (uM Pi/min/mg protein) of 0.4.

Broadly, the pIC50 is the negative decadic logarithm of the IC50, by convention in mol/L. A low value points to a large IC50.
